The supplement of paper PMC11061612

Assays:
[1] = tested on: 8305C (Thyroid Gland Carcinoma); assay: Bliss excess, mean over the matrix (fraction); higher = more synergy
Outline: (§1)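 After 24 hours at 37°C and 5% CO2 in 1536-well plates, cells in DMEM/F12 or RPMI plus 10% FBS received two-drug dose matrices for 72 hours. Viability came from CellTiter-Glo 2.0 luminescence and was scaled as inhibition, anchored at 0 by vehicle wells and at 1 by blank wells. Combination Emax is taken as the second-highest inhibition in the matrix, and Bliss excess as the observed combination effect less EA + EB − EA·EB, with EA and EB the single-agent effects.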

[2] = tested on: HDLM-2 (Hodgkin's Lymphoma); assay: as above
Outline: as §1

HMV-II (Melanoma) = assay: as above
Outline: as §1

[3] = tested on: MDA-MB-468 (Breast Carcinoma); assay: as above
Outline: as §1

Mewo (Melanoma) = assay: as above
Outline: as §1

NCI-H2795 (Mesothelioma) = assay: as above
Outline: as §1

[4] = tested on: PCI-30 (Head and Neck Carcinoma); assay: as above
Outline: as §1

[5] = tested on: RKO (Colorectal Carcinoma); assay: as above
Outline: as §1

SH-4 (Melanoma) = assay: as above
Outline: as §1

[6] = tested on: SW1116 (Colorectal Carcinoma); assay: as above
Outline: as §1

[7] = tested on: 8305C (Thyroid Gland Carcinoma); assay: combination Emax (second highest fraction inhibited in the dose matrix, 72 h); higher = more inhibition; extreme values may be limits of the assay
Outline: as §1

[8] = tested on: Hs-633T (Other Solid Carcinomas); assay: as above
Outline: as §1

NCI-H28 (Mesothelioma) = assay: as above
Outline: as §1

[9] = tested on: OC-314 (Ovarian Carcinoma); assay: as above
Outline: as §1

[10] = tested on: RKO (Colorectal Carcinoma); assay: as above
Outline: as §1

[11] = tested on: RPMI-6666 (Non-Cancerous); assay: as above
Outline: as §1

[12] = tested on: RT-112 (Bladder Carcinoma); assay: as above
Outline: as §1

[13] = tested on: SK-OV-3 (Ovarian Carcinoma); assay: as above
Outline: as §1

[14] = tested on: SUP-T1 (T-Lymphoblastic Leukemia); assay: as above
Outline: as §1

[15] = tested on: SW1271 (Small Cell Lung Carcinoma); assay: as above
Outline: as §1
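Throughout, for Bliss excess, mean over the matrix: after 72 h of two-drug dosing.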

Compound	Bliss excess [1]	Bliss excess [2]	Bliss excess (HMV-II (Melanoma))	Bliss excess [3]	Bliss excess (Mewo (Melanoma))	Bliss excess (NCI-H2795 (Mesothelioma))	Bliss excess [4]	Bliss excess [5]	Bliss excess (SH-4 (Melanoma))	Bliss excess [6]	combination Emax [7]	combination Emax [8]	combination Emax (NCI-H28 (Mesothelioma))	combination Emax [9]	combination Emax [10]	combination Emax [11]	combination Emax [12]	combination Emax [13]	combination Emax [14]	combination Emax [15]
CN(CCO)CC[C@H](CSc1ccccc1)Nc1ccc(S(=O)(=O)NC(=O)c2ccc(N3CCC([C@@H](O)c4ccccc4-c4ccc(Cl)cc4)CC3)cc2)cc1S(=O)(=O)C(F)(F)F [AZD4320] + CC(=O)O[C@H]1C(=O)[C@@]2(C)[C@H]([C@H](OC(=O)c3ccccc3)[C@]3(O)C[C@H](OC(=O)[C@H](O)[C@@H](NC(=O)c4ccccc4)c4ccccc4)C(C)=C1C3(C)C)[C@]1(OC(C)=O)CO[C@@H]1C[C@@H]2O [Paclitaxel] (first compound max 1 µM, 7x7, partner max 3 µM)	0.0435	0.0159	0.101	0.0898	0.0548	0.0621	0.177	0.0012	0.0813	-0.101	0.846	1	0.823	1	1	1	0.991	0.978	0.852	0.927
C[C@@H](Oc1cc(-c2cnn(C3CCNCC3)c2)cnc1N)c1c(Cl)ccc(F)c1Cl [Crizotinib] + CC1=C(C(=CC=C1)Cl)NC(=O)C2=CN=C(S2)NC3=CC(=NC(=N3)C)N4CCN(CC4)CCO [Dasatinib] (first compound max 10 µM, 7x7, partner max 2 µM)	0.0122	-0.0228	-0.104	0.0256	-0.0156	0.0277	0.0685	0.0106	-0.0674	0.0159	0.843	1	0.772	0.838	0.771	0.686	0.974	0.391	0.837	0.714
C[C@@H]1COCCN1c1cc(C2([S@](C)(=N)=O)CC2)nc(-c2ccnc3[nH]ccc23)n1 [AZD6738] + C1CC(C1)(C(=O)[O-])C(=O)[O-].N.N.[Pt+2] [Carboplatin] (first compound max 10 µM, 7x7, partner max 10 µM)	-0.046	0.0001	-0.0067	-0.0511	-0.0192	-0.0819	-0.0362	-0.0594	-0.057	-0.0483	0.501	0.836	0.479	0.814	0.932	0.7	0.679	0.36	0.719	0.356
C[C@@H](Oc1cc(-c2cnn(C3CCNCC3)c2)cnc1N)c1c(Cl)ccc(F)c1Cl [Crizotinib] + Cn1cnc2c(F)c(Nc3ccc(Br)cc3Cl)c(C(=O)NOCCO)cc21 [Selumetinib] (first compound max 10 µM, 7x7, partner max 10 µM)	0.0017	-0.0399	-0.0273	-0.0996	-0.0431	-0.0974	-0.0206	0.122	-0.0768	-0.0239	0.801	0.896	0.438	0.494	0.982	0.672	0.819	0.249	0.823	0.896
C[C@@H]1COCCN1c1cc(C2([S@](C)(=N)=O)CC2)nc(-c2ccnc3[nH]ccc23)n1 [AZD6738] + Nc1ccn([C@@H]2O[C@H](CO)[C@@H](O)C2(F)F)c(=O)n1 [Gemcitabine] (first compound max 10 µM, 7x7, partner max 0.3 µM)	0.0252	0.0754	-0.0112	0.0233	0.0475	-0.0533	0.0539	-0.0088	-0.0029	0.0575	0.721	0.937	0.695	0.993	0.954	0.936	0.936	0.625	0.852	0.7
O=C(c1cc(Cc2n[nH]c(=O)c3ccccc23)ccc1F)N1CCN(C(=O)C2CC2)CC1 [Olaparib] + Cc1c2c(nn1C)CSCc1cc(n(C)n1)CSc1cc(c3ccccc3c1)OCCCc1c(C(=O)O)n(C)c3c-2c(Cl)ccc13 [AZD5991] (first compound max 10 µM, 7x7, partner max 1 µM)	-0.0391	-0.0194	-0.0561	-0.0391	-0.0652	-0.0207	-0.048	-0.0205	-0.0412	-0.0503	0.311	0.184	0.118	0.191	0.137	0.794	0.672	0.174	0.477	0.131
C=CCn1c(=O)c2cnc(Nc3ccc(N4CCN(C)CC4)cc3)nc2n1-c1cccc(C(C)(C)O)n1 [AZD1775] + Nc1ccn([C@@H]2O[C@H](CO)[C@@H](O)C2(F)F)c(=O)n1 [Gemcitabine] (first compound max 1 µM, partner max 0.3 µM)	-0.0524	-0.0627	-0.0355	0.0073	-0.0623	-0.0549	0.0252	-0.0367	-0.0092	-0.0077	0.574	0.863	0.685	0.972	0.882	0.917	0.956	0.583	0.862	0.617
C[C@@H](Nc1cc(F)cc(F)c1)c1cc(C(=O)N(C)C)cc2c(=O)cc(N3CCOCC3)oc12 [AZD8186] + CC(=O)c1c(C)c2cnc(Nc3ccc(N4CCNCC4)cn3)nc2n(C2CCCC2)c1=O [Palbociclib] (first compound max 10 µM, 7x7, partner max 10 µM)	0.0133	0.0121	0.0265	-0.022	-0.0155	0.0582	0.0121	0.0559	-0.0303	-0.0352	0.564	0.586	0.434	0.594	0.514	0.691	0.352	0.394	0.651	0.411
N#Cc1cnc(Nc2cc(NC[C@H]3CNCCO3)c(C(F)(F)F)cn2)cn1 [SRA737] + Nc1ccn([C@@H]2O[C@H](CO)[C@@H](O)C2(F)F)c(=O)n1 [Gemcitabine] (first compound max 10 µM, 7x7, partner max 0.3 µM)	-0.0158	0.0526	-0.0122	0.0293	-0.0047	-0.0258	-0.0288	-0.0179	0.0138	0.0727	0.679	0.916	0.761	0.979	0.923	0.933	0.899	0.543	0.806	0.647
CN(CCO)CC[C@H](CSc1ccccc1)Nc1ccc(S(=O)(=O)NC(=O)c2ccc(N3CCC([C@@H](O)c4ccccc4-c4ccc(Cl)cc4)CC3)cc2)cc1S(=O)(=O)C(F)(F)F [AZD4320] + C[C@@H](Nc1cc(F)cc(F)c1)c1cc(C(=O)N(C)C)cc2c(=O)cc(N3CCOCC3)oc12 [AZD8186] (first compound max 1 µM, 7x7, partner max 3 µM)	0.0676	0.0434	-0.0397	0.0195	0.0471	0.0426	-0.0503	-0.0164	-0.0042	0.0353	0.669	0.503	0.297	0.433	0.32	0.996	0.435	0.407	0.887	0.649
CN(CCO)CC[C@H](CSc1ccccc1)Nc1ccc(S(=O)(=O)NC(=O)c2ccc(N3CCC([C@@H](O)c4ccccc4-c4ccc(Cl)cc4)CC3)cc2)cc1S(=O)(=O)C(F)(F)F [AZD4320] + Nc1ccn([C@@H]2O[C@H](CO)[C@@H](O)C2(F)F)c(=O)n1 [Gemcitabine] (first compound max 1 µM, 7x7, partner max 0.3 µM)	0.072	0.0204	-0.0109	-0.0034	0.0099	-0.0094	-0.0272	-0.0195	0.0224	-0.0292	0.625	0.992	0.797	0.989	0.928	0.985	0.507	0.308	0.846	0.872
N#Cc1cnc(Nc2cc(NC[C@H]3CNCCO3)c(C(F)(F)F)cn2)cn1 [SRA737] + O=c1[nH]cc(F)c(=O)[nH]1 [5-Fluorouracil] (first compound max 10 µM, 7x7, partner max 20 µM)	-0.0326	0.0758	-0.0542	-0.0199	-0.0136	0.0744	0.0058	0.0048	-0.0344	-0.033	0.392	0.413	0.28	0.902	0.656	0.901	0.712		0.662	0.156
